Source: ChEMBL document CHEMBL1140403, “Carbonic anhydrase inhibitors: inhibition of cytosolic/tumor-associated carbonic anhydrase isozymes I, II, and IX with benzo[b]thiophene 1,1-dioxide sulfonamides” (Bioorg Med Chem Lett, 2005)
pKi: −log10 of the molar value.

target: Carbonic anhydrase 9 (Homo sapiens, UniProt Q16790)
Description: Inhibitory activity against catalytic domain of human cloned Carbonic anhydrase IX by the CO2 hydration method

pKi | Structure (SMILES)
6.44 | CCNS(=O)(=O)c1ccc2c(c1)S(=O)(=O)C=C2
< 6.00 | O=S1(=O)C=Cc2ccc(S(=O)(=O)NCc3ccccc3)cc21
8.51 | CCCCOC1CS(=O)(=O)c2cc(S(N)(=O)=O)ccc21 (stereo not given)
7.89 | CC1=CS(=O)(=O)c2cc(S(N)(=O)=O)ccc21
7.89 | NS(=O)(=O)c1ccc2c(c1)C=CS2(=O)=O
7.82 | NS(=O)(=O)c1ccc2c(c1)S(=O)(=O)C=C2
7.12 | O=S1(=O)C=Cc2ccc(S(=O)(=O)NCC3CC3)cc21
< 6.00 | COc1cccc(NS(=O)(=O)c2ccc3c(c2)C=CS3(=O)=O)c1

Structure (SMILES) | pKi
NS(=O)(=O)c1ccc2c(c1)S(=O)(=O)CC2 | 8.00
NS(=O)(=O)c1ccc2c(c1)S(=O)(=O)CC2OCc1ccccc1 (stereo not given) | 8.55

target: Carbonic anhydrase 1 (Homo sapiens, UniProt P00915)
Sequence (P00915 whole entry): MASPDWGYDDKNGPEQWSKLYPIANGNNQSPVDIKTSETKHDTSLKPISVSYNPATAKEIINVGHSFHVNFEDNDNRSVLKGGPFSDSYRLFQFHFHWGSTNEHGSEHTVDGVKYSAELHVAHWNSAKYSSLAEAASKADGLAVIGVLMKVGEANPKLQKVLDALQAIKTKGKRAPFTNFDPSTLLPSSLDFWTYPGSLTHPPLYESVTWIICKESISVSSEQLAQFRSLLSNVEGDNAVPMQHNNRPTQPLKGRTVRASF
Description: Inhibitory activity against human cloned Carbonic anhydrase I by the CO2 hydration method

pKi | Structure (SMILES)
6.28 | CCNS(=O)(=O)c1ccc2c(c1)S(=O)(=O)C=C2
< 6.00 | O=S1(=O)C=Cc2ccc(S(=O)(=O)NCc3ccccc3)cc21
6.98 | CCCCOC1CS(=O)(=O)c2cc(S(N)(=O)=O)ccc21 (stereo not given)
7.07 | CC1=CS(=O)(=O)c2cc(S(N)(=O)=O)ccc21
7.12 | NS(=O)(=O)c1ccc2c(c1)C=CS2(=O)=O
7.20 | NS(=O)(=O)c1ccc2c(c1)S(=O)(=O)C=C2
6.31 | O=S1(=O)C=Cc2ccc(S(=O)(=O)NCC3CC3)cc21
< 6.00 | COc1cccc(NS(=O)(=O)c2ccc3c(c2)C=CS3(=O)=O)c1

Structure (SMILES) | pKi
NS(=O)(=O)c1ccc2c(c1)S(=O)(=O)CC2 | 7.14
NS(=O)(=O)c1ccc2c(c1)S(=O)(=O)CC2OCc1ccccc1 (stereo not given) | 6.86

target: Carbonic anhydrase 2 (Homo sapiens, UniProt P00918)
Description: Inhibitory activity against human cloned Carbonic anhydrase II by the CO2 hydration method

pKi | Structure (SMILES)
6.36 | CCNS(=O)(=O)c1ccc2c(c1)S(=O)(=O)C=C2
< 6.00 | O=S1(=O)C=Cc2ccc(S(=O)(=O)NCc3ccccc3)cc21
8.20 | CCCCOC1CS(=O)(=O)c2cc(S(N)(=O)=O)ccc21 (stereo not given)
8.08 | CC1=CS(=O)(=O)c2cc(S(N)(=O)=O)ccc21
8.13 | NS(=O)(=O)c1ccc2c(c1)C=CS2(=O)=O
8.12 | NS(=O)(=O)c1ccc2c(c1)S(=O)(=O)C=C2
6.32 | O=S1(=O)C=Cc2ccc(S(=O)(=O)NCC3CC3)cc21
< 6.00 | COc1cccc(NS(=O)(=O)c2ccc3c(c2)C=CS3(=O)=O)c1

Structure (SMILES) | pKi
NS(=O)(=O)c1ccc2c(c1)S(=O)(=O)CC2 | 8.06
NS(=O)(=O)c1ccc2c(c1)S(=O)(=O)CC2OCc1ccccc1 (stereo not given) | 8.10
